Laboratory results as given in PubChem BioAssay AID2060894 (Molecular Pharmacology Branch, DTP, NCI, 2025).

Test system: K12877-001-R-J1-PDC complex spheroid viability
Assay: Anticancer human tumor K12877-001-R-J1-PDC patient-derived lung adenocarcinoma cell line growth inhibition [RAS]
Conditions: for IC50: curve of first compound; for viability, T/C: stronger effect = lower value; active = viability on the fitted dose curve at most 10% of control; inactive = the rest
In short: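 Tumour cells grown as complex spheroids with HUVEC endothelial cells and mesenchymal stem cells, treated with RAS pathway inhibitor combinations. Each agent spans half-log steps from near clinical Cmax, or 10 microM where Cmax is unknown.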
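Note: spheroids exposed to agents for one week before readout.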
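Throughout, for viability, T/C: tumour cells co-cultured with HUVEC and mesenchymal stem cells in spheroids.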

CCc1c2c(nc3ccc(O)cc13)-c1cc3c(c(=O)n1C2)COC(=O)[C@]3(O)CC + CCn1c(-c2cc(N3CCN(C)CC3)cnc2C(C)OC)c2c3cc(ccc31)-c1csc(n1)CC(NC(=O)C1CC1C)C(=O)N1CCCC(N1)C(=O)OCC(C)(C)C2
active: viability, T/C (second compound 0.000949 µM, first compound 0.03 µM) 7.02% | viability, T/C (second compound 0.000949 µM, first compound 0.0949 µM) 3.48% | viability, T/C (second compound 0.000949 µM, first compound 0.3 µM) 2.43% | viability, T/C (second compound 0.003 µM, first compound 0.03 µM) 6.6% | viability, T/C (second compound 0.003 µM, first compound 0.0949 µM) 4.13% | viability, T/C (second compound 0.003 µM, first compound 0.3 µM) 2.12% | viability, T/C (second compound 0.00949 µM, first compound 0.03 µM) 6.3% | viability, T/C (second compound 0.00949 µM, first compound 0.0949 µM) 3.36% | viability, T/C (second compound 0.00949 µM, first compound 0.3 µM) 1.64% | viability, T/C (second compound 0.03 µM, first compound 0.03 µM) 6.66% | viability, T/C (second compound 0.03 µM, first compound 0.0949 µM) 2.86% | viability, T/C (second compound 0.03 µM, first compound 0.3 µM) 1.43% | viability, T/C (second compound 0.0949 µM, first compound 0.03 µM) 5.27% | viability, T/C (second compound 0.0949 µM, first compound 0.0949 µM) 3.05% | viability, T/C (second compound 0.0949 µM, first compound 0.3 µM) 1.38% | viability, T/C (second compound 0.3 µM, first compound 0.00949 µM) 9.52% | viability, T/C (second compound 0.3 µM, first compound 0.03 µM) 4.79% | viability, T/C (second compound 0.3 µM, first compound 0.0949 µM) 3.58% | viability, T/C (second compound 0.3 µM, first compound 0.3 µM) 1.11%
inactive: viability, T/C (second compound 0.000949 µM, first compound 0.000949 µM) 78.3% | viability, T/C (second compound 0.000949 µM, first compound 0.003 µM) 72.4% | viability, T/C (second compound 0.000949 µM, first compound 0.00949 µM) 18.2% | viability, T/C (second compound 0.003 µM, first compound 0.000949 µM) 67.2% | viability, T/C (second compound 0.003 µM, first compound 0.003 µM) 68.8% | viability, T/C (second compound 0.003 µM, first compound 0.00949 µM) 13.6% | viability, T/C (second compound 0.00949 µM, first compound 0.000949 µM) 71.6% | viability, T/C (second compound 0.00949 µM, first compound 0.003 µM) 59.8% | viability, T/C (second compound 0.00949 µM, first compound 0.00949 µM) 15.8% | viability, T/C (second compound 0.03 µM, first compound 0.000949 µM) 84.9% | viability, T/C (second compound 0.03 µM, first compound 0.003 µM) 67.8% | viability, T/C (second compound 0.03 µM, first compound 0.00949 µM) 11.5% | viability, T/C (second compound 0.0949 µM, first compound 0.000949 µM) 94.8% | viability, T/C (second compound 0.0949 µM, first compound 0.003 µM) 59.5% | viability, T/C (second compound 0.0949 µM, first compound 0.00949 µM) 13.8% | viability, T/C (second compound 0.3 µM, first compound 0.000949 µM) 85.1% | viability, T/C (second compound 0.3 µM, first compound 0.003 µM) 46.9%
3.87 nM: IC50 (second compound 0.00949 µM)
3.81 nM: IC50 (second compound 0.0949 µM)
4.39 nM: IC50 (second compound 0.003 µM)
4.82 nM: IC50 (second compound 0.000949 µM)
4.32 nM: IC50 (second compound 0.03 µM)
2.73 nM: IC50 (second compound 0.3 µM)
